Reference: PMC7407834, “Development of an LDL Receptor-Targeted Peptide Susceptible to Facilitate the Brain Access of Diagnostic or Therapeutic Agents” (Biology, 2020)

Assays:
N18(H) cells = assay: Colocalization of LRPep2 with caveolae and lysosomes, N18(H); format: cell-based; conditions: differentiated N18(H) cells
Procedure: Experiments on N18(H) cells were performed after differentiation. Cells were immobilized on the appropriate support, and the differentiation was induced the second day, using medium containing 0.2% FBS for 48 h.
(§1) Cells were first incubated with LRPep2-rho, as described above (cf. 2.4. Evaluation of the endocytosis potential of peptides LRPep1 and LRPep2), before being permeabilized with methanol. Then, cells were blocked with PBS supplemented with 5% NGS and 0.3% Triton X-100. Caveolae and lysosomes were detected using anti-caveolin 1 and anti-LAMP1 (Lysosomal-Associated Membrane Protein 1) antibodies, respectively, made in rabbit (both from Santa Cruz, Heidelberg, Germany) and incubated overnight at 4 µg/mL in PBS. Finally, cells were incubated for 1 h with an anti-rabbit IgG made in goat coupled to fluorescein (Vector Labconsult) at 20 µg/mL in phosphate buffer pH 7.8 supplemented with 0.5% BSA. Cells were mounted with Vectashield mounting medium with DAPI.

ACBRI376 cells = assay: Colocalization of LRPep2 with caveolae and lysosomes, ACBRI376; format: cell-based, human
Procedure: as §1

HepaRG cells = assay: Colocalization of LRPep2 with caveolae and lysosomes, HepaRG; format: cell-based; conditions: p < 0.001
Procedure: as §1

1321N1 cells = assay: Colocalization of LRPep2 with caveolae and lysosomes, 1321N1; format: cell-based
Procedure: as §1

[1] = test system: HUVEC, HepaRG, ACBRI376 and 1321N1 cells; assay: Endocytosis of rhodamine-coupled peptides, fluorescence microscopy (RRFL); format: cell-based, human; conditions: all studied cell models, p < 0.001 in HepaRG, p < 0.05 in HUVEC
Procedure: Cells were seeded onto coverslips coated with collagen (0.2 mg/mL, Sigma-Aldrich, Overijse, Belgium) at a density of 8 × 10^5 cells/well and grown for 3 days.
Cells were incubated for 2 h at 37 °C in the dark with LRPep1-rho or LRPep2-rho (peptides coupled to rhodamine, 200 µM in culture medium for HepaRG and HUVEC, 25 µM for ACBRI376 and 1321N1); the negative control was incubated with culture medium. The use of the rhodamine as a fluorescent probe was based on our previous experience with labeled peptides. Cells were rinsed two times with PBS (per liter: 8 g NaCl, 0.2 g KCl, 2.31 g Na2HPO4 × 12 H2O, 0.2 g KH2PO4, pH 7.4). […]
Fluorescence was observed using a Leica DM2000 microscope equipped with a light source EL 6000 and a DFC 425C camera (Leica Microsystems, Groot Bijgaarden, Belgium).
Figure 4 Endocytosis of the peptides LRPep1-rho and LRPep2-rho (stained in red) in (A) HUVEC and HepaRG cells and (B) ACBRI376 and 1321N1 cells. […] (C–F) The endocytosis of peptides, as well as the expression of LDLR, was semi-quantitatively evaluated by the measurement of fluorescent labeling using the ImageJ software and was normalized to the number of cells and to the background, giving the relative ratio of fluorescent labeling (RRFL); *: p < 0.05, **: p < 0.001. […]

HPWCCGLRLDLR [LRPep2]
Endocytosis pathway (N18(H) cells): both pathways
Endocytosis pathway (ACBRI376 cells; ACBRI376, caveolin-1 fluorescence increased (p < 0.05), LAMP1 decreased (p < 0.05)): endocytosed by the non-degradation pathway involving caveolae
Mander's coefficient (M), colocalization of rhodamine with caveolin-1 (ACBRI376 cells; ACBRI376 cells, LRPep2-rho 25 µM, 2 h 37 °C, Figure S4): 82.7%
Endocytosis pathway (HepaRG cells): significant increase of fluorescence was observed for lysosomes
Endocytosis pathway (1321N1 cells): both pathways
Endocytosis of the peptide compared with the other peptide [1]: more effective than that of peptide LRPep1
